# Data: ChEMBL document CHEMBL5528067, “From Synergy to Monotherapy: Discovery of Novel 2,4,6-Trisubstituted Triazine Hydrazone Derivatives with Potent Antifungal Potency In Vitro and In Vivo” (J Med Chem, 2024)
# Active and inactive are the calls of the source. The rule behind the calls is not given here.
# Tests used:
# [1] = test system: Candida albicans; assay: Antifungal activity against FCZ-resistant Candida albicans SC5314 assessed as growth inhibition at 4 microg/ml measured at 12 hrs incubation by time growth assay; format: functional, organism-based; details: dose 4.0 µg/ml
# [2] = test system: Candida albicans; assay: Antifungal activity against FCZ-resistant Candida albicans strain 904 assessed as growth inhibition measured after 48 hrs incubation by CLSI based micro-dilution broth method; format: functional
# [3] = test system: Candida albicans; assay: Antifungal activity against FCZ-resistant Candida albicans strains assessed as growth inhibition measured after 48 hrs incubation by CLSI based micro-dilution broth method; format: functional
# [4] = biological target: T1, Lanosterol 14-alpha demethylase (Candida albicans (strain SC5314 / ATCC MYA-2876) (Yeast), UniProt P10613); assay: Inhibition of CYP51 in Candida albicans SC5314 assessed as accumulation of eburicol at 4 microg/ml measured after 8 hrs by GC-MS analysis; details: dose 4 µg/ml
# T1 sequence (P10613 whole entry): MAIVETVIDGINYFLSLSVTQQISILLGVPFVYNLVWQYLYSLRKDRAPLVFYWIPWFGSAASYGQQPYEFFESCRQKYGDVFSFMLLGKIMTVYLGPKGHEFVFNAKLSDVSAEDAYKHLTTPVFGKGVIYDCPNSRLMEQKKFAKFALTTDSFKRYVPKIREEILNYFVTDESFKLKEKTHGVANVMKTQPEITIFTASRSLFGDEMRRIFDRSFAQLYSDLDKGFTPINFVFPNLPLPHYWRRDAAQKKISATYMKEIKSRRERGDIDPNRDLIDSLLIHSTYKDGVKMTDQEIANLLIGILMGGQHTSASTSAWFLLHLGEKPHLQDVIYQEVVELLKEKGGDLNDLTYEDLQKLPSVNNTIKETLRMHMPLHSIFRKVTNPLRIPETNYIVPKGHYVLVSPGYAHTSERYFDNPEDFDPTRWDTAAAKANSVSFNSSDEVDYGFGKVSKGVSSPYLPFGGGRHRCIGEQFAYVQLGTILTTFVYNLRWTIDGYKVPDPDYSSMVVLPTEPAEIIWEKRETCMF
# [5] = biological target: T1, Lanosterol 14-alpha demethylase; assay: Inhibition of CYP51 in Candida albicans SC5314 assessed as accumulation of 14alpha-methylfecosterol at 4 microg/ml measured after 8 hrs by GC-MS analysis; details: dose 4 µg/ml
# [6] = test system: Candida tropicalis; assay: Antifungal activity against Candida tropicalis 8915 assessed as growth inhibition measured after 48 hrs incubation by CLSI based micro-dilution broth method; format: functional
# [7] = test system: Nakaseomyces glabratus; assay: Antifungal activity against Candida glabrata 537 assessed as growth inhibition measured after 48 hrs incubation by CLSI based micro-dilution broth method; format: functional
# [8] = test system: Pichia kudriavzevii; assay: Antifungal activity against FCZ-resistant Candida krusei 4996 assessed as growth inhibition at 32 microg/ml measured at 24 hrs incubation by time growth assay; format: functional, organism-based; details: dose 32.0 µg/ml
# [9] = test system: [Candida] auris; assay: Antifungal activity against FCZ-resistant Candida auris 919 assessed as growth inhibition measured after 48 hrs incubation by CLSI based micro-dilution broth method; format: functional; details: Candidozyma auris
# [10] = test system: Cryptococcus neoformans; assay: Antifungal activity against Cryptococcus neoformans 32609 assessed as growth inhibition measured after 48 hrs incubation by CLSI based micro-dilution broth method; format: functional
# [11] = test system: Nakaseomyces glabratus; assay: Antifungal activity against FCZ-resistant Candida glabrata 537 assessed as growth inhibition at 4 microg/ml measured at 12 hrs incubation by time growth assay; format: functional, organism-based; details: dose 4.0 µg/ml
# [12] = test system: [Candida] auris; assay: Antifungal activity against FCZ-resistant Candida auris 918 assessed as growth inhibition measured after 48 hrs incubation by CLSI based micro-dilution broth method; format: functional; details: Candidozyma auris
# [13] = test system: Candida albicans; assay: Antifungal activity against FCZ-resistant Candida albicans strain 901 assessed as growth inhibition measured after 48 hrs incubation by CLSI based micro-dilution broth method; format: functional
# [14] = test system: Pichia kudriavzevii; assay: Antifungal activity against Candida krusei 4996 assessed as growth inhibition measured after 48 hrs incubation by CLSI based micro-dilution broth method; format: functional
# [15] = test system: Candida albicans; assay: Antifungal activity against FCZ-resistant Candida albicans 10231 assessed as growth inhibition measured after 48 hrs incubation by CLSI based micro-dilution broth method; format: functional
# [16] = test system: Candida albicans; assay: Antifungal activity against FCZ-resistant Candida albicans strains assessed as growth inhibition in presence of (E)-2-((4,6-Bis((4-fluorobenzyl)amino)-1,3,5-triazin-2-yl)hydrazineylidene)methyl)-4-nitrophenol measured after 48 hrs incubation by CLSI based micro-dilution broth method; format: functional
# [17] = Hemolytic activity in rabbit Red blood cell assessed as hemolysis rate at 64 microg/ml incubated for 1 hr; format: toxicity, cell-based, Oryctolagus cuniculus, Erythrocyte; details: red blood cells, at 64 µg/mL, read-out: Activity
# [18] = test system: Candida albicans; assay: In vivo antifungal activity against Candida albicans SC5314 infected in C57BL/6J mouse assessed as reduction in fungal burden in kidney at 0.5 mg/kg, po treated once a day for 2 days; format: functional, organism-based; details: time 2.0 day
# [19] = test system: Candida parapsilosis; assay: Antifungal activity against Candida parapsilosis 22019 assessed as growth inhibition measured after 48 hrs incubation by CLSI based micro-dilution broth method; format: functional; details: Lodderomyces parapsilosis
# [20] = test system: Cryptococcus neoformans; assay: Antifungal activity against FCZ-resistant Cryptococcus neoformans 32609 assessed as growth inhibition at 1 microg/ml measured at 24 hrs incubation by time growth assay; format: functional, organism-based; details: dose 1.0 µg/ml
# [21] = Cytotoxicity against human HUVEC cells assessed as cell viability at 16 microg/ml measured after 24 hrs by CCK-8 assay relative to control; format: toxicity, cell-based; details: at 16 µg/mL, read-out: Activity
# [22] = test system: Candida albicans; assay: Antifungal activity against FCZ-resistant Candida albicans SC5314 assessed as growth inhibition measured after 48 hrs incubation by CLSI based micro-dilution broth method; format: functional
# [23] = biological target: T1, Lanosterol 14-alpha demethylase; assay: Inhibition of CYP51 in Candida albicans SC5314 assessed as accumulation of obtusifoliol at 4 microg/ml measured after 8 hrs by GC-MS analysis; details: dose 4 µg/ml
# [24] = biological target: T1, Lanosterol 14-alpha demethylase; assay: Inhibition of CYP51 in Candida albicans SC5314 assessed as decrease in ergosterol biosynthesis at 4 microg/ml measured after 8 hrs by GC-MS analysis (reference value: 88.32%); parameters: scale not given: the % may be the effect or the level left; details: at 4 µg/mL
# [25] = Hemolytic activity in rabbit Red blood cell assessed as hemolysis rate at 8 microg/ml incubated for 1 hr; format: toxicity, cell-based, Oryctolagus cuniculus, Erythrocyte; details: red blood cells, at 8 µg/mL, read-out: Activity
compound,measurement,setting,value
OC(Cn1cncn1)(Cn1cncn1)c1ccc(F)cc1F [FLUCONAZOLE],Activity,[1],Active
same,MIC80,[2],> 64 µg/mL
same,MIC80,[3],> 64 µg/mL
same,Activity,[4],Active
same,Activity,[5],Active
same,MIC80,[6],0.5 µg/mL
same,MIC80,[7],1 µg/mL
same,Activity,[8],Active
same,MIC80,[9],> 64 µg/mL
same,MIC80,[10],2 µg/mL
same,Activity,[11],inactive
same,MIC80,[12],> 64 µg/mL
same,MIC80,[13],> 64 µg/mL
same,MIC80,[14],64 µg/mL
same,MIC80,[15],64 µg/mL
same,MIC80,[16],1 µg/mL
same,"hemolysis at 1 h, 64 microg/ml",[17],23.9%
same,Activity,[18],Active
same,MIC80,[19],2 µg/mL
same,Activity,[20],inactive
same,"viability at 24 h, 16 microg/ml",[21],82.8%
same,MIC80,[22],0.5 µg/mL
same,Activity,[23],Active
same,Activity,[24],2.91%
C[C@@H]1[C@H](O)[C@@H](C)/C=C/C=C/C=C/C=C/C=C/C=C/C=C/[C@H](O[C@@H]2O[C@H](C)[C@@H](O)[C@H](N)[C@@H]2O)C[C@@H]2O[C@](O)(C[C@@H](O)C[C@@H](O)[C@H](O)CC[C@@H](O)C[C@@H](O)CC(=O)O[C@H]1C)C[C@H](O)[C@H]2C(=O)O [AMPHOTERICIN B],"hemolysis at 1 h, 8 microg/ml",[25],50.7%
